Molecular target: T1, FBXO11 F-box only protein 11 (Homo sapiens, UniProt Q86XK2)
T1 construct: Cells were resuspended in cold PBS on ice and sonicated with a probe sonicator to achieve lysis; endogenous in cells
T1 sequence (Q86XK2 1-927): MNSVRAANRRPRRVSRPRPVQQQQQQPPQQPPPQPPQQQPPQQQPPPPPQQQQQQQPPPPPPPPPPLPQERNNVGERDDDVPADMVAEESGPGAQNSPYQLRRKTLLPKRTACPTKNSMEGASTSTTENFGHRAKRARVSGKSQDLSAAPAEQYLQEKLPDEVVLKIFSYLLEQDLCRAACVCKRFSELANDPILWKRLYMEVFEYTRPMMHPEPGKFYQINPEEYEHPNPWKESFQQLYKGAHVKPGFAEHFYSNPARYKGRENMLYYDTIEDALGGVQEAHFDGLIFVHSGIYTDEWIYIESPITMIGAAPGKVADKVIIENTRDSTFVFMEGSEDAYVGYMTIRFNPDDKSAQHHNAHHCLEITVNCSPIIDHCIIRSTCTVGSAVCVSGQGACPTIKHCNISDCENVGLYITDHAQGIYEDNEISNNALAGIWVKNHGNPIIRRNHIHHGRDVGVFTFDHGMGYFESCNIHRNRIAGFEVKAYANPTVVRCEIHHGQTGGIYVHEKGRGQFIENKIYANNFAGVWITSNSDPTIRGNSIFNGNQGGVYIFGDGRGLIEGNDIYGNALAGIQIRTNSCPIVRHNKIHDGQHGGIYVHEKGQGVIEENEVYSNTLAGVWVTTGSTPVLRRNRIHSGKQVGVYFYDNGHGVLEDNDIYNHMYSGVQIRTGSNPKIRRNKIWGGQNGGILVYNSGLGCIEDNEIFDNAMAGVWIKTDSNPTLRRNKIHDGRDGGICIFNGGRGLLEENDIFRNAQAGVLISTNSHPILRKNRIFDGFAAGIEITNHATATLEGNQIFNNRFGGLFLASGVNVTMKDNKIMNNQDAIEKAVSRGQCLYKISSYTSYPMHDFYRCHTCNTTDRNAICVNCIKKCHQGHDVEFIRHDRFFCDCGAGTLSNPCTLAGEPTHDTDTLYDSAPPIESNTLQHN
Assay: Cysteine liganding, probe competition
Type: binding
Outline: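 Read-out is loss of desthiobiotin iodoacetamide labelling at cysteines, measured on streptavidin-enriched tryptic peptides. Compound preincubation ran 1 hr at 25° C in PBS lysate holding 5 mg/ml proteome before the probe was added.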

O=C(CCl)Nc1cc(C(F)(F)F)cc(C(F)(F)F)c1 [KBO3]
100 Max (uniprot Q86XK2): −13.9 | 100 ave (uniprot Q86XK2): −20.1 | 500 Max (uniprot Q86XK2): 28.6 | 500 ave (uniprot Q86XK2): 20.3

COc1ccc2c(c1)CCCN2C(=O)CCl [KB02]
Liganded (FBXO11 Res# 581, uniprot Q86XK2): YES
